From patent US7192973B2, “Piperidine derivatives and their use as modulators of chemokine receptor activity (especially CCR5)” (AstraZeneca AB, priority 2001, dated 2007)

Molecular target: recombinant human CCR5 receptor (Homo sapiens, UniProt P51681)
Test: in vitro radioligand binding assay: inhibition of the binding of iodinated MIP-1α
Conditions: membranes from Chinese hamster ovary cells expressing CCR5; 0.1 nM iodinated MIP-1α; average if tested more than once
Protocol: The ability of compounds to inhibit the binding of MIP-1α was assessed by an in vitro radioligand binding assay. Membranes were prepared from Chinese hamster ovary cells which expressed the recombinant human CCR5 receptor. These membranes were incubated with 0.1 nM iodinated MIP-1α, scintillation proximity beads and various concentrations of the compounds of the invention in 96-well plates. The amount of iodinated MMP-1α bound to the receptor was determined by scintillation counting. Competition curves were obtained for compounds and the concentration of compound which displaced 50% of bound iodinated MIP-1α was calculated (IC50).

recombinant human CCR5 receptor, sequence (P51681 whole entry): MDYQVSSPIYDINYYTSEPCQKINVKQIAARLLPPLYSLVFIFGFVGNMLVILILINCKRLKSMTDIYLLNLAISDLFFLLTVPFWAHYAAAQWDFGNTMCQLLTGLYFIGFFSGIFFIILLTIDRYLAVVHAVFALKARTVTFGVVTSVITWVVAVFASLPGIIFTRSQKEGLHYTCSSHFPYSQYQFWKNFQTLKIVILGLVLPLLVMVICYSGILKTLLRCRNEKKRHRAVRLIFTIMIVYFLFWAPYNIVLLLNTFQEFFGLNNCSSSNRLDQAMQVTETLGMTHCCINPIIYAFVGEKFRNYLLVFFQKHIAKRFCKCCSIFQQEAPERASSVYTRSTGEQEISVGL

Structure (SMILES): CCN(C(=O)Cc1ccc(S(C)(=O)=O)cc1)C1CCN(CCC(c2ccccc2)N2CCN(C)CC2)CC1 (centres unmarked) [6 of Table I]
- IC50: 0.363 µM

Structure (SMILES): CCN(C(=O)Cc1ccc(S(C)(=O)=O)cc1)C1CCN(CCC(c2ccccc2)N2CCN(S(=O)(=O)CC(F)(F)F)CC2)CC1 (centres unmarked) [15 of Table II]
- IC50: 0.00562 µM
